Measured values published in ChEMBL document CHEMBL4229467, “Acyl Glucuronide Metabolites of 6-Chloro-5-[4-(1-hydroxycyclobutyl)phenyl]-1 H-indole-3-carboxylic Acid (PF-06409577) and Related Indole-3-carboxylic Acid Derivatives are Direct Activators of Adenosine Monophosphate-Activated Protein Kinase (AMPK)” (J Med Chem, 2018).

Assays:
physchem = details: in vivo, pH 7.4
[1] = Drug level in human hepatocytes treated with 6-chloro-5-(6-(dimethylamino)-2-methoxypyridin-3-yl)-1H-indole-3-carboxylic acid at 10 uM after 4 hrs by HPLC-UV analysis; type: ADME, cell-based, Hepatocyte
Hepatocyte = details: human, hepatocytes, 4 h, 10 µM
Description: Retention time of the compound in human hepatocytes at 10 uM after 4 hrs by HPLC-UV analysis

in vitro [2] = details: dog, MDCK
Description: Apparent passive permeability of the compound in RRCK cells by FACS analysis

[3] = Half life of the compound in deuteriated phosphate buffer at pH 7.4 at 37 degC measured every 25 mins for 21 hrs by 1H NMR analysis; type: physicochemical
[4] = Half life in human primary hepatocytes at 10 uM; type: ADME, cell-based, Hepatocyte
[5] = Intrinsic clearance in human primary hepatocytes assessed per million cells; type: ADME, cell-based, Hepatocyte; details: read-out: CLH
AMPK alpha1/beta2/gamma1 = AMPK alpha1/beta2/gamma1 (Homo sapiens, UniProt O43741+P54619+Q13131); experiment: biochemical
Description: Activation of full-length recombinant N-terminal His-tagged human AMPKalpha1beta2gamma1 expressed in Escherichia coli BL21 cells using Cy-5 SAMS peptide as substrate preincubated for 60 mins followed by substrate addition and measured after 60 mins in presence of PP2a by TR-FRET assay

AMPK alpha2/beta1/gamma1 = AMPK alpha2/beta1/gamma1 (Homo sapiens, UniProt P54619+P54646+Q9Y478); experiment: biochemical
Description: Activation of full-length recombinant N-terminal His-tagged human AMPKalpha2beta1gamma1 expressed in Escherichia coli BL21 cells using Cy-5 SAMS peptide as substrate preincubated for 60 mins followed by substrate addition and measured after 60 mins in presence of PP2a by TR-FRET assay

AMPK alpha2/beta2/gamma1 = AMPK alpha2/beta2/gamma1 (Homo sapiens, UniProt O43741+P54619+P54646); experiment: biochemical
Description: Activation of full-length recombinant N-terminal His-tagged human AMPKalpha2beta2gamma1 expressed in Escherichia coli BL21 cells using Cy-5 SAMS peptide as substrate preincubated for 60 mins followed by substrate addition and measured after 60 mins in presence of PP2a by TR-FRET assay

AMPK alpha2/beta2/gamma3 = AMPK alpha2/beta2/gamma3 (Homo sapiens, UniProt O43741+P54646+Q9UGI9); experiment: biochemical
Description: Activation of full-length recombinant N-terminal His-tagged human AMPKalpha2beta2gamma3 expressed in Escherichia coli BL21 cells using Cy-5 SAMS peptide as substrate preincubated for 60 mins followed by substrate addition and measured after 60 mins in presence of PP2a by TR-FRET assay

[6] = target: AMP-activated protein kinase (AMPK) alpha-1/beta-1/gamma-1 (Homo sapiens) (UniProt P54619+Q9Y478+Q13131)
Description: Binding affinity to Bap-tagged human AMPKalpha1beta1gamma1 expressed in Escherichia coli BL21 cells assessed as dissociation half life by SPR analysis

[7] = target: T1, AMP-activated protein kinase (AMPK) alpha-1/beta-1/gamma-1 (Homo sapiens, UniProt P54619+Q13131+Q9Y478); experiment: biochemical
Description: Binding affinity to Bap-tagged human AMPKalpha1beta1gamma1 expressed in Escherichia coli BL21 cells by SPR analysis

[8] = target: T1, AMP-activated protein kinase (AMPK) alpha-1/beta-1/gamma-1; experiment: biochemical; remark: listed apart in the source
Description: Activation of full-length recombinant N-terminal His-tagged human AMPKalpha1beta1gamma1 expressed in Escherichia coli BL21 cells using Cy-5 SAMS peptide as substrate preincubated for 60 mins followed by substrate addition and measured after 60 mins in presence of PP2a by TR-FRET assay

[9] = Drug level in human hepatocytes treated with (S)-4,6-difluoro-5-(4-(tetrahydro-2H-pyran-2-yl)phenyl)-1H-indole-3-carboxylic acid at 10 uM after 4 hrs by HPLC-UV analysis; type: ADME, cell-based, Hepatocyte
in vivo [10] = details: cynomolgus monkey, urine, iv, 1 mg/kg
Description: Drug recovery in cynomolgus monkey urine assessed as unchanged parent compound level at 1 mg/kg, iv by LC-MS/MS analysis

[11] = Half life in rat hepatocytes; type: ADME, cell-based, Hepatocyte
[12] = Intrinsic clearance in rat hepatocytes assessed per million cells; type: ADME, cell-based, Hepatocyte; details: read-out: CLH
Rattus norvegicus = experiment: AUC (0 to 24 hrs) in Wistar Han rat assessed as 6-chloro-5-[4-(1-hydroxycyclobutyl)phenyl]-1H-indole-3-carboxylic acid level at 0.5 mg/kg, iv by LC-MS/MS analysis; type: ADME, organism-based; set-up: time < 24 hr, dose 0.5 mg/kg, route intravenous; details: in vivo
[13] = Intrinsic clearance in monkey hepatocytes assessed per million cells; type: ADME, cell-based, Macaca mulatta, Hepatocyte; details: rhesus monkey, read-out: CLH
[14] = Half life in human hepatocytes; type: ADME, cell-based, Hepatocyte
[15] = Drug level in human hepatocytes treated with 6-chloro-5-[4-(1-hydroxycyclobutyl)phenyl]-1H-indole-3-carboxylic acid at 10 uM after 4 hrs by HPLC-UV analysis; type: ADME, cell-based, Hepatocyte
[16] = Intrinsic clearance in human hepatocytes assessed per million cells; type: ADME, cell-based, Hepatocyte; details: read-out: CLH
in vivo [17] = details: cynomolgus monkey, iv, 1 mg/kg
[18] = Plasma clearance in Wistar Han rat at 0.5 mg/kg, iv by LC-MS/MS analysis; type: ADME, organism-based
in vitro [19] = details: rat, plasma
Description: Protein binding in rat plasma assessed as unbound fraction

[20] = Half life in monkey hepatocytes; type: ADME, cell-based, Macaca mulatta, Hepatocyte; details: rhesus monkey
[21] = AUC (0 to 24 hrs) in Wistar Han rat at 0.5 mg/kg, iv by LC-MS/MS analysis; type: ADME, organism-based; set-up: time < 24 hr, dose 0.5 mg/kg, route intravenous; details: in vivo
[22] = Half life in Wistar Han rat at 0.5 mg/kg, iv by LC-MS/MS analysis; type: ADME, organism-based; details: in vivo
in vivo [23] = details: cynomolgus monkey, plasma, iv, 1 mg/kg
in vitro [24] = details: human, plasma
Description: Protein binding in human plasma assessed as unbound fraction

in vivo [25] = details: cynomolgus monkey, iv, 1 mg/kg; remark: listed apart in the source
Description: Half life in cynomolgus monkey at 1 mg/kg, iv by LC-MS/MS analysis

[26] = Volume of distribution at steady state in Wistar Han rat at 0.5 mg/kg, iv by LC-MS/MS analysis; type: ADME, organism-based; details: in vivo, read-out: Vdss
in vitro [27] = details: rhesus monkey, plasma
Description: Protein binding in monkey plasma assessed as unbound fraction

in vivo [28] = details: cynomolgus monkey, iv, 1 mg/kg; remark: listed apart in the source
Description: Volume of distribution at steady state in cynomolgus monkey at 1 mg/kg, iv by LC-MS/MS analysis

[29] = Drug recovery in Wistar Han rat urine assessed as unchanged parent compound level at 0.5 mg/kg, iv by LC-MS/MS analysis; type: ADME, organism-based; details: read-out: Drug recovery
Cynomolgus monkey = experiment: AUC (0 to 24 hrs) in cynomolgus monkey assessed as 6-chloro-5-[4-(1-hydroxycyclobutyl)phenyl]-1H-indole-3-carboxylic acid level at 0.5 mg/kg, iv by LC-MS/MS analysis; type: ADME, organism-based, Macaca fascicularis; set-up: dose 0.5 mg/kg, time < 24 hr, route intravenous; details: in vivo
[30] = Drug metabolism in human hepatocytes assessed as (2S,3S,4S,5R,6S)-6-((4,6-Difluoro-5-(4-((S)-tetrahydro-2H-pyran-2-yl)phenyl-1H-indole-3-carbonyl)oxy)-3,4,5-trihydroxytetrahydro-2H-pyran-2-carboxylic acid formation at 10 uM after 4 hrs by HPLC-UV analysis; type: ADME, cell-based, Hepatocyte

T1 sequence (P54619 whole entry): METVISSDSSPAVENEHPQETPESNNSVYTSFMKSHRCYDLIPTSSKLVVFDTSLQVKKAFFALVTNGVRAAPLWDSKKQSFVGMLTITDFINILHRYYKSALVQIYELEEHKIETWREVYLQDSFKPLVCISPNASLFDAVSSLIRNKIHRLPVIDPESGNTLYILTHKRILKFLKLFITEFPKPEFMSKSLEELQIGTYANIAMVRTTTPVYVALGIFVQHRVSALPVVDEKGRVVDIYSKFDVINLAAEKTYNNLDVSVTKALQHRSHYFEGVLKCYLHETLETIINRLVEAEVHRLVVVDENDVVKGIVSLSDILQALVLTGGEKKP
T1 sequence (Q9Y478 whole entry): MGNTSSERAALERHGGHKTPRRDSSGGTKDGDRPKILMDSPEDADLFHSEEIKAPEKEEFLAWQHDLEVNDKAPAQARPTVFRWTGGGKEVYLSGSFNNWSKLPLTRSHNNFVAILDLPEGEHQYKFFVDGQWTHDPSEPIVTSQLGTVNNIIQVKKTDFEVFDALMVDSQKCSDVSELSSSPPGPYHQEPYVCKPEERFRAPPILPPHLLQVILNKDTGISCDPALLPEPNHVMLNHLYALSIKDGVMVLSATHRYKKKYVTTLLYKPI
T1 sequence (Q13131 whole entry): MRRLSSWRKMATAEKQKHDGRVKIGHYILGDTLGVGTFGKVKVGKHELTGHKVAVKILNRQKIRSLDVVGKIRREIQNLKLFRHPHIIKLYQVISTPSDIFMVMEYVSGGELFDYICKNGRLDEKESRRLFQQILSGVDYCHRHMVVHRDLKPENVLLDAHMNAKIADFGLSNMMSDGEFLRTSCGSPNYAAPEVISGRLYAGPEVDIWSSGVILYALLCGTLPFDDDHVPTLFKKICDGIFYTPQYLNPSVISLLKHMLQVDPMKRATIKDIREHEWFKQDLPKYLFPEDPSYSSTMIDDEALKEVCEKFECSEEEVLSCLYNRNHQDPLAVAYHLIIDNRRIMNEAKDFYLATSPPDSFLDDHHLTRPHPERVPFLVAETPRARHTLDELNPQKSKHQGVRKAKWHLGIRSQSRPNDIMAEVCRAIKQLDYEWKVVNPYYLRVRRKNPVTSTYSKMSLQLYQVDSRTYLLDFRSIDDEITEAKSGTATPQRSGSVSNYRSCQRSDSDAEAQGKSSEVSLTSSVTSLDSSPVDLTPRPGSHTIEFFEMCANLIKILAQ
Sequence of AMP-activated protein kinase (AMPK) alpha-1/beta-1/gamma-1 (Homo sapiens) (P54619 whole entry): as the sequence (P54619 whole entry) above
Sequence of AMP-activated protein kinase (AMPK) alpha-1/beta-1/gamma-1 (Homo sapiens) (Q13131 whole entry partner): as the sequence (Q13131 whole entry) above
Sequence of AMP-activated protein kinase (AMPK) alpha-1/beta-1/gamma-1 (Homo sapiens) (Q9Y478 2-270 partner limits assumed): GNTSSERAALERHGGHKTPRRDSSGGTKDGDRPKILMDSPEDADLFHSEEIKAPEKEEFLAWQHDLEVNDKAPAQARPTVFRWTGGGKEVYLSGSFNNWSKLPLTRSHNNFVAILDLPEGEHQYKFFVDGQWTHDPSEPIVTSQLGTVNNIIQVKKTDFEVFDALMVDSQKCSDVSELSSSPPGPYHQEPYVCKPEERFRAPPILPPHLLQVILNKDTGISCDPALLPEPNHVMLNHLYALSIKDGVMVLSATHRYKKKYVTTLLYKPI
Sequence of AMPK alpha2/beta2/gamma3 (P54646 whole entry): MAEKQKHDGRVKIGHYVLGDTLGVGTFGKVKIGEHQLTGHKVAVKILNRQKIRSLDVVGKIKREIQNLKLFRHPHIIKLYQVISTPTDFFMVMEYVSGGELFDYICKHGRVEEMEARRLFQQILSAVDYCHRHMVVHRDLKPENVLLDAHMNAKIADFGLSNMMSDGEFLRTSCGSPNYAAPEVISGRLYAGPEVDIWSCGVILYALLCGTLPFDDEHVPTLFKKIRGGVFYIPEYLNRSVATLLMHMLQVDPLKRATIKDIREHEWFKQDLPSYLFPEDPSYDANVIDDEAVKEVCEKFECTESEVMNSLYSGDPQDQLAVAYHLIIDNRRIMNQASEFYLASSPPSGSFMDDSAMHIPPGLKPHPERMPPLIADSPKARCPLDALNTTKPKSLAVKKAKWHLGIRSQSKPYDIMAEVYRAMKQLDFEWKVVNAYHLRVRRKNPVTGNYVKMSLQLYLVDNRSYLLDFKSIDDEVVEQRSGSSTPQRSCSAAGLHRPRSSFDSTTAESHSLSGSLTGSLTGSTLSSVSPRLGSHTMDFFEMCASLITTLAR
Sequence of AMPK alpha2/beta2/gamma3 (O43741 whole entry): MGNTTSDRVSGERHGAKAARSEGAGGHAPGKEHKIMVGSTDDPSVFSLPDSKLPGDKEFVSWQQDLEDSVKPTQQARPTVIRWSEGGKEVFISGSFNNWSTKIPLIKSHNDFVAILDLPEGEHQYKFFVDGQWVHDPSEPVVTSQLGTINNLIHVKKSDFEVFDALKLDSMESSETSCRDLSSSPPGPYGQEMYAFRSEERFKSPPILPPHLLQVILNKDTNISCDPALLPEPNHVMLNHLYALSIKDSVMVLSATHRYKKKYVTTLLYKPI
Sequence of AMPK alpha2/beta2/gamma3 (Q9UGI9 whole entry): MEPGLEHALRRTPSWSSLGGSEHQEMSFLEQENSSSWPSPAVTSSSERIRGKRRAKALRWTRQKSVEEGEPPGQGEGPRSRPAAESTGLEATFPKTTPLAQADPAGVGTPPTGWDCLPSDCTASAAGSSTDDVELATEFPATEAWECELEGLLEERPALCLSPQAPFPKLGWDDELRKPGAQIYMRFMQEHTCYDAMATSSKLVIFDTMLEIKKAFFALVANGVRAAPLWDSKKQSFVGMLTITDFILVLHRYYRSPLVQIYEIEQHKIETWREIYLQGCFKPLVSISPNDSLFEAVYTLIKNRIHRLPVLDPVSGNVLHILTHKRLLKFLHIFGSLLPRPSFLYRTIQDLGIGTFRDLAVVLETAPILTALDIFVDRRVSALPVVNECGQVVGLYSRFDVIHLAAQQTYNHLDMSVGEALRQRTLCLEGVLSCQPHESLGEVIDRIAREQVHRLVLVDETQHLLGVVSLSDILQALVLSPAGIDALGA
Sequence of AMPK alpha2/beta1/gamma1 (P54646 whole entry): as the sequence (P54646 whole entry) above
Sequence of AMPK alpha2/beta1/gamma1 (P54619 whole entry): as the sequence (P54619 whole entry) above
Sequence of AMPK alpha2/beta1/gamma1 (Q9Y478 whole entry): as the sequence (Q9Y478 whole entry) above
Sequence of AMPK alpha2/beta2/gamma1 (P54646 whole entry): as the sequence (P54646 whole entry) above
Sequence of AMPK alpha2/beta2/gamma1 (O43741 whole entry): as the sequence (O43741 whole entry) above
Sequence of AMPK alpha2/beta2/gamma1 (P54619 whole entry): as the sequence (P54619 whole entry) above
Sequence of AMPK alpha1/beta2/gamma1 (O43741 whole entry): as the sequence (O43741 whole entry) above
Sequence of AMPK alpha1/beta2/gamma1 (P54619 whole entry): as the sequence (P54619 whole entry) above
Sequence of AMPK alpha1/beta2/gamma1 (Q13131 whole entry): as the sequence (Q13131 whole entry) above

COc1nc(N(C)C)ccc1-c1cc2c(C(=O)O[C@@H]3O[C@H](C(=O)O)[C@@H](O)[C@H](O)[C@H]3O)c[nH]c2cc1Cl
logD at 1 h (physchem): -0.05
Drug metabolism [1]: Metabolite_Detected
Retention_time (Hepatocyte): 7.96 min
Papp (in vitro [2]): 0.3 ×10⁻⁶ cm/s
half-life [3]: > 21 h
half-life at 10 µM [4]: > 6.67 h
hepatocyte CLint [5]: < 3 µL/min/1e6 cells

COc1nc(N(C)C)ccc1-c1cc2c(C(=O)O)c[nH]c2cc1Cl
logD at 1 h (physchem): 2.3

O=C(O[C@@H]1O[C@H](C(=O)O)[C@@H](O)[C@H](O)[C@H]1O)c1c[nH]c2cc(F)c(-c3ccc([C@@H]4CCCCO4)cc3)c(F)c12
EC50 (AMPK alpha1/beta2/gamma1): > 40000 nM
logD at 1 h (physchem): 0.08
EC50 (AMPK alpha2/beta1/gamma1): 332 nM
Retention_time (Hepatocyte): 8.37 min
EC50 (AMPK alpha2/beta2/gamma1): > 40000 nM
Papp (in vitro [2]): 0.3 ×10⁻⁶ cm/s
EC50 (AMPK alpha2/beta2/gamma3): > 40000 nM
T1/2 [6]: 15.3 s
half-life [3]: > 21 h
Kd [7]: 198 nM
EC50 [8]: 59 nM
Drug metabolism [9]: Metabolite_Detected

O=C(O[C@@H]1O[C@H](C(=O)O)[C@@H](O)[C@H](O)[C@H]1O)c1c[nH]c2cc(Cl)c(-c3ccc(C4(O)CCC4)cc3)cc12
dose excreted (in vivo [10]): 9.8%
half-life [11]: > 4 h
logD at 1 h (physchem): -0.14
hepatocyte CLint [12]: < 6 µL/min/1e6 cells
AUC (Rattus norvegicus): 101 ng·h/mL
Retention_time (Hepatocyte): 7.09 min
hepatocyte CLint [13]: < 6 µL/min/1e6 cells
half-life [14]: > 4 h
Drug metabolism [15]: Metabolite_Detected
hepatocyte CLint [16]: < 6 µL/min/1e6 cells
AUC(0-t) at 24 h (in vivo [17]): 1750 ng·h/mL
clearance [18]: 0.99 mL/min/kg
fraction unbound (in vitro [19]): 0.0018
Papp (in vitro [2]): 0.6 ×10⁻⁶ cm/s
half-life [20]: > 4 h
AUC(0-t) at 24 h [21]: 8850 ng·h/mL
half-life [3]: > 21 h
half-life [22]: 6.96 h
clearance (in vivo [23]): 9.85 mL/min/kg
fraction unbound (in vitro [24]): 0.019
half-life (in vivo [25]): 18 h
Vd [26]: 0.4 L/kg
half-life at 10 µM [4]: > 6.67 h
fraction unbound (in vitro [27]): 0.028
Vd (in vivo [28]): 4.52 L/kg
hepatocyte CLint [5]: < 3 µL/min/1e6 cells
dose excreted [29]: 1%
AUC (Cynomolgus monkey): 303 ng·h/mL

O=C(NO)c1c[nH]c2cc(Cl)c(-c3ccc(C4(O)CCC4)cc3)cc12
Retention_time (Hepatocyte): 7.25 min
Drug metabolism [15]: Metabolite_Detected

O=C(O)c1c[nH]c2cc(F)c(-c3ccc([C@@H]4CCCCO4)cc3)c(F)c12
logD at 1 h (physchem): 1.8
Retention_time (Hepatocyte): 9.72 min
Drug metabolism [30]: Metabolite_Detected
